Data reported in publication PMC7044277 (Nature Communications, 2020).
Where “and” joins values, the source holds several entries; their conditions need not be identical. Equal values may be shown once.

Columns and labels:
Type in all cases: cell-based
[1] = target: 320 non-olfactory GPCRs (Homo sapiens, UniProt Q13258); settings: receptor PTGDR; replicate values, Fig_4g
[2] = target: T1, 320 non-olfactory GPCRs (Homo sapiens, UniProt Q9HB89); settings: receptor NMUR1; replicate values, Fig_4g
T1 construct: expressed in transfected cells; host or cells: HTLA cells
T1 sequence (Q9HB89 whole entry): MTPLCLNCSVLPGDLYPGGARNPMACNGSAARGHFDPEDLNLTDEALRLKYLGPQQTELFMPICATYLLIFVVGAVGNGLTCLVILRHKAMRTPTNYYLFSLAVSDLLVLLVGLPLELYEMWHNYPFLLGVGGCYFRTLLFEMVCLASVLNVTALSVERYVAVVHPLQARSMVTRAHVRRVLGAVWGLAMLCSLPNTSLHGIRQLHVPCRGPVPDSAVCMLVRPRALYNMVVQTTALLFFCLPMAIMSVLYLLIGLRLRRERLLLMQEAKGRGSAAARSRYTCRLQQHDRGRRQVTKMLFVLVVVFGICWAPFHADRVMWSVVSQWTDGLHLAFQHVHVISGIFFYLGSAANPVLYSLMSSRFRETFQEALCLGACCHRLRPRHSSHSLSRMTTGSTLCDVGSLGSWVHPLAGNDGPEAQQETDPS

[3] = target: 320 non-olfactory GPCRs (Homo sapiens, UniProt P35372); settings: receptor OPRM1; replicate values, Fig_4g
320 non-olfactory GPCRs (Homo sapiens, UniProt P35372), sequence (P35372 whole entry): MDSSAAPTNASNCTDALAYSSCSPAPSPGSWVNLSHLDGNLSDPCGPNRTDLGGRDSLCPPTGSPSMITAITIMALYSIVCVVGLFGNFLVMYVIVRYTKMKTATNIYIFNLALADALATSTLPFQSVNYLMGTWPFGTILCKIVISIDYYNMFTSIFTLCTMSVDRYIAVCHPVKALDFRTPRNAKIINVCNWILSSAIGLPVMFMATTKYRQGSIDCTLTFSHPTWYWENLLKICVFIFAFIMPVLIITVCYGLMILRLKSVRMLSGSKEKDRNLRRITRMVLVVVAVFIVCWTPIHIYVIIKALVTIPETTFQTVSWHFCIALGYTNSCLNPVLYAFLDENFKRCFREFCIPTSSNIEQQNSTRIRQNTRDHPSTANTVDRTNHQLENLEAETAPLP

[4] = target: T2, 320 non-olfactory GPCRs (Homo sapiens, UniProt P51684)
T2 construct: expressed in transfected cells; host or cells: HTLA cells
T2 sequence (P51684 whole entry): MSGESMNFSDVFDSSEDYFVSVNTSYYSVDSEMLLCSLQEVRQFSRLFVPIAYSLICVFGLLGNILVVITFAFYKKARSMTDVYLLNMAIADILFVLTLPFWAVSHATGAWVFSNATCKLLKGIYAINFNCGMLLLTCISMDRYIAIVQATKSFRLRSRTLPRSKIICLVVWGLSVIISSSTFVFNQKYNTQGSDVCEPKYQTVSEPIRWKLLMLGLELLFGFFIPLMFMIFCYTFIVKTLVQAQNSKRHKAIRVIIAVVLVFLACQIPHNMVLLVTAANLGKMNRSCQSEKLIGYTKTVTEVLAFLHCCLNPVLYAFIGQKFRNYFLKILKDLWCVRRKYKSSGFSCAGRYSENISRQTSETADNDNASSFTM
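Throughout, for Fold of Basal: compound tested at 1 µM final concentration.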
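Throughout, for GPCRome agonism screen response: fold over basal response of each receptor without drug.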

320 non-olfactory GPCRs (Homo sapiens, UniProt Q13258), sequence (Q13258 whole entry): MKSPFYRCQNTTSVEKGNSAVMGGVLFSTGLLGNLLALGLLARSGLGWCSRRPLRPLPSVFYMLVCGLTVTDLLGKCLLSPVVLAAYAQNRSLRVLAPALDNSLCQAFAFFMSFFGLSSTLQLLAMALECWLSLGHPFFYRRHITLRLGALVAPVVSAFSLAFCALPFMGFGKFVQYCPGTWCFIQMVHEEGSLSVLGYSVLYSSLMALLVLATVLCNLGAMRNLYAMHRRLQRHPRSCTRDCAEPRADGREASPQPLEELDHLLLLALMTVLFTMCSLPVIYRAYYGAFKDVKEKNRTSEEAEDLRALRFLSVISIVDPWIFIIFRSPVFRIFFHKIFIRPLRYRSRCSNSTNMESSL

CCOc1cccc2cc(C(C)NCC3(O)CCCCC3)oc12 (stereo not shown) [O4LE6]
GPCRome agonism screen response [1]: 1.067 and 0.797 and 0.4909 and 0.5007
GPCRome agonism screen response [2]: 1.001 and 1.011 and 0.9191 and 1.865
GPCRome agonism screen response [3]: 0.5449 and 0.6973 and 1.0539 and 0.5973
Fold of Basal [4]: 0.9905 and 0.8775 and 0.7328 and 0.5067
